Test results reported in US10695337B2, “Piperidin-4-yl azetidine derivatives as JAK1 inhibitors” (Incyte Corporation, priority 2010, dated 2020).

target: human JAK1 (a.a. 837-1142); test: In vitro JAK kinase assay (HTRF, phosphorylation of a biotinylated peptide), JAK1; format: biochemical; conditions: measured at 1 mM ATP; JAK2 IC50 / JAK1 IC50
Procedure, shortened: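 N-terminal His-tagged catalytic domains, baculovirus-expressed in insect cells, phosphorylated a biotinylated peptide for 1 hr at room temperature. EDTA stop was followed by SA-APC and Eu-Py20 antibody for 40 minutes, with phosphopeptide read by HTRF.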

Row | Compound | IC50 Ratio JAK2/JAK1
1 | N#CCC1(n2cc(-c3ncnc4[nH]ccc34)cn2)CN(C2CCN(C(=O)c3sc4cccc(F)c4c3Cl)CC2)C1 [Example 92, {1-{1-[(3-chloro-4-fluoro-1-benzothien-2-yl)carbonyl]piperidin-4-yl}-3-[4-(7H-pyrrolo[2,3-d]pyrimidin-4-yl)-1H-pyrazol-1-yl]azetidin-3-yl}acetonitrile] | 2.8
2 | N#CCC1(n2cc(-c3ncnc4[nH]ccc34)cn2)CN(C2CCN(C(=O)c3cc4c(C(F)(F)F)cccc4s3)CC2)C1 [Example 93, [3-[4-(7H-pyrrolo[2,3-d]pyrimidin-4-yl)-1H-pyrazol-1-yl]-1-(1-{[4-(trifluoromethyl)-1-benzothien-2-yl]carbonyl}piperidin-4-yl)azetidin-3-yl]acetonitrile] | 1.5
3 | N#CCC1(n2cc(-c3ncnc4[nH]ccc34)cn2)CN(C2CCN(C(=O)c3cc4ccc(C(F)(F)F)cc4s3)CC2)C1 [Example 94, [3-[4-(7H-pyrrolo[2,3-d]pyrimidin-4-yl)-1H-pyrazol-1-yl]-1-(1-{[6-(trifluoromethyl)-1-benzothien-2-yl]carbonyl}piperidin-4-yl)azetidin-3-yl]acetonitrile] | 1.0
4 | N#CCC1(n2cc(-c3ncnc4[nH]ccc34)cn2)CN(C2CCN(C(=O)c3cc4cccc(C(F)(F)F)c4s3)CC2)C1 [Example 95, [3-[4-(7H-pyrrolo[2,3-d]pyrimidin-4-yl)-1H-pyrazol-1-yl]-1-(1-{[7-(trifluoromethyl)-1-benzothien-2-yl]carbonyl}piperidin-4-yl)azetidin-3-yl]acetonitrile] | 2.7
5 | N#CCC1(n2cc(-c3ncnc4[nH]ccc34)cn2)CN(C2CCN(C(=O)c3csc4ccccc34)CC2)C1 [Example 96, {1-[1-(1-benzothien-3-ylcarbonyl)piperidin-4-yl]-3-[4-(7H-pyrrolo[2,3-d]pyrimidin-4-yl)-1H-pyrazol-1-yl]azetidin-3-yl} acetonitrile] | 0.5
6 | N#CCC1(n2cc(-c3ncnc4[nH]ccc34)cn2)CN(C2CCN(C(=O)C3CCc4ccccc4C3)CC2)C1 (stereo not shown) [Example 97, {3-[4-(7H-pyrrolo[2,3-d]pyrimidin-4-yl)-1H-pyrazol-1-yl]-1-[1-(1,2,3,4-tetrahydronaphthalen-2-ylcarbonyl)piperidin-4-yl]azetidin-3-yl}acetonitrile] | 2.2
7 | N#CCC1(n2cc(-c3ncnc4[nH]ccc34)cn2)CN(C2CCN(C(=O)C3CCC(C(F)(F)F)CC3)CC2)C1 (stereo not shown) [Example 98, [3-[4-(7H-pyrrolo[2,3-d]pyrimidin-4-yl)-1H-pyrazol-1-yl]-1-(1-{[4-(trifluoromethyl)cyclohexyl]carbonyl}piperidin-4-yl)azetidin-3-yl] acetonitrile] | 3.7
8 | N#CCC1(n2cc(-c3ncnc4[nH]ccc34)cn2)CN(C2CCN(C(=O)C3CCC(F)(F)CC3)CC2)C1 [Example 100, {1-{1-[(4,4-difluorocyclohexyl)carbonyl]piperidin-4-yl}-3-[4-(7H-pyrrolo[2,3-d]pyrimidin-4-yl)-1H-pyrazol-1-yl]azetidin-3-yl}acetonitrile] | 6.6
9 | N#CCC1(n2cc(-c3ncnc4[nH]ccc34)cn2)CN(C2CCN(C(=O)C3CCCC3)CC2)C1 [Example 101, {1-[1-(cyclopentylcarbonyl)piperidin-4-yl]-3-[4-(7H-pyrrolo[2,3-d]pyrimidin-4-yl)-1H-pyrazol-1-yl]azetidin-3-yl}acetonitrile] | 8.3
10 | N#CCC1(n2cc(-c3ncnc4[nH]ccc34)cn2)CN(C2CCN(C(=O)C3CCC(c4ccc(Cl)cc4)CC3)CC2)C1 (stereo not shown) [Example 105, {1-(1-{[4-(4-chlorophenyl)cyclohexyl]carbonyl}piperidin-4-yl)-3-[4-(7H-pyrrolo[2,3-d]pyrimidin-4-yl)-1H-pyrazol-1-yl]azetidin-3-yl}acetonitrile] | 7.2
11 | N#CCC1(n2cc(-c3ncnc4[nH]ccc34)cn2)CN(C2CCN(C(=O)Cc3ccccc3)CC2)C1 [Example 109, {1-[1-(phenylacetyl)piperidin-4-yl]-3-[4-(7H-pyrrolo[2,3-d]pyrimidin-4-yl)-1H-pyrazol-1-yl]azetidin-3-yl} acetonitrile] | 1.1
12 | N#CCC1(n2cc(-c3ncnc4[nH]ccc34)cn2)CN(C2CCN(C(=O)C3(c4ccccc4)CC3)CC2)C1 [Example 110, {1-{1-[(1-phenylcyclopropyl)carbonyl]piperidin-4-yl}-3-[4-(7H-pyrrolo[2,3-d]pyrimidin-4-yl)-1H-pyrazol-1-yl]azetidin-3-yl}acetonitrile] | 1.6
13 | N#CCC1(n2cc(-c3ncnc4[nH]ccc34)cn2)CN(C2CCN(C(=O)C3(c4ccc(Cl)cc4)CC3)CC2)C1 [Example 111, {1-(1-{[1-(4-chlorophenyl)cyclopropyl]carbonyl}piperidin-4-yl)-3-[4-(7H-pyrrolo [2,3-d]pyrimidin-4-yl)-1H-pyrazol-1-yl]azetidin-3-yl}acetonitrile] | 2.6
14 | N#CCC1(n2cc(-c3ncnc4[nH]ccc34)cn2)CN(C2CCN(C(=O)Cc3c(Cl)cccc3Cl)CC2)C1 [Example 112, {1-{1-[(2,6-dichlorophenyl)acetyl]piperidin-4-yl}-3-[4-(7H-pyrrolo[2,3-d]pyrimidin-4-yl)-1H-pyrazol-1-yl]azetidin-3-yl} acetonitrile] | 8.2
15 | Cc1cc(C)c(CC(=O)N2CCC(N3CC(CC#N)(n4cc(-c5ncnc6[nH]ccc56)cn4)C3)CC2)c(C)c1 [Example 113, {1-[1-(mesitylacetyl)piperidin-4-yl]-3-[4-(7H-pyrrolo[2,3-d]pyrimidin-4-yl)-1H-pyrazol-1-yl]azetidin-3-yl} acetonitrile] | 4.2
16 | N#CCC1(n2cc(-c3ncnc4[nH]ccc34)cn2)CN(C2CCN(C(=O)c3ccc(-c4ccccc4)cc3)CC2)C1 [Example 114, {1-[1-(biphenyl-4-ylcarbonyl)piperidin-4-yl]-3-[4-(7H-pyrrolo[2,3-d]pyrimidin-4-yl)-1H-pyrazol-1-yl]azetidin-3-yl}acetonitrile] | 1.5
17 | N#CCC1(n2cc(-c3ncnc4[nH]ccc34)cn2)CN(C2CCN(C(=O)c3ccc(-c4ccncc4)c(F)c3)CC2)C1 [Example 117, {1-[1-(3-fluoro-4-pyridin-4-ylbenzoyl)piperidin-4-yl]-3-[4-(7H-pyrrolo[2,3-d]pyrimidin-4-yl)-1H-pyrazol-1-yl]azetidin-3-yl} acetonitrile] | 10.0
18 | N#CCC1(n2cc(-c3ncnc4[nH]ccc34)cn2)CN(C2CCN(C(=O)c3ccc(-c4ccc(C#N)c(F)c4)c(F)c3)CC2)C1 [Example 119, 4′-[(4-{3-(cyanomethyl)-3-[4-(7H-pyrrolo[2,3-d]pyrimidin-4-yl)-1H-pyrazol-1-yl]azetidin-1-yl}piperidin-1-yl)carbonyl]-2′,3-difluorobiphenyl-4-carbonitrile] | 14.0
19 | N#CCC1(n2cc(-c3ncnc4[nH]ccc34)cn2)CN(C2CCN(C(=O)c3ccc(-c4cccnc4)c(F)c3)CC2)C1 [Example 123, {1-[1-(3-fluoro-4-pyridin-3-ylbenzoyl)piperidin-4-yl]-3-[4-(7H-pyrrolo[2,3-d]pyrimidin-4-yl)-1H-pyrazol-1-yl]azetidin-3-yl} acetonitrile] | 3.8
